Reference: patent US8513271B2, “Pyrimidine compounds as delta opioid receptor modulators” (Janssen Pharmaceutica, NV, priority 2009, dated 2013)
Where two headings read alike, the source gives them in different places.

Key:
delta opioid receptor [1] = target: T1, delta opioid receptor (Rattus norvegicus, UniProt P33533); assay: Rat brain delta opioid receptor binding assay; conditions: rat forebrain
T1 construct: the forebrains were homogenized in Tris buffer in a Teflon®-glass homogenizer; from tissue; host or cells: forebrain of male Wistar rats, particulate (membrane) preparation

mu opioid receptor = target: T2, mu opioid receptor (Rattus norvegicus, UniProt P33535); assay: Rat brain mu opioid receptor binding assay; conditions: rat forebrain, [3H]DAMGO ligand
T2 construct: the forebrains were homogenized in Tris buffer in a Teflon®-glass homogenizer; from tissue; host or cells: forebrain of male Wistar rats, particulate (membrane) preparation

delta opioid receptor [2] = target: T3, delta opioid receptor (Mus musculus, UniProt P32300); assay: [35S]GTPγS binding assay in NG108-15 cell membranes (delta opioid functional assay), 200 nM screen; assay type: biochemical; conditions: NG108-15 cell membranes; for EC50: averages if tested more than once; for GTPγS δ-opioid receptor Rel Efficacy: relative efficacy from dose response
T3 construct: NG108-15 cell membranes were purchased from Applied Cell Sciences (Rockville, Md.); host or cells: NG108-15 cell membranes

[3] = δ-binding (Naltrindole ligand) Ki, [3H]naltrindole ligand
[4] = [3H]DPDPE ligand, read-out: δ-binding (DPDPE ligand) Ki
[5] = [3H]naltrindole ligand, read-out: δ-binding (Naltrindole ligand) Ki
[6] = read-out: GTPγS δ-opioid receptor EC50

T3 sequence (P32300 whole entry): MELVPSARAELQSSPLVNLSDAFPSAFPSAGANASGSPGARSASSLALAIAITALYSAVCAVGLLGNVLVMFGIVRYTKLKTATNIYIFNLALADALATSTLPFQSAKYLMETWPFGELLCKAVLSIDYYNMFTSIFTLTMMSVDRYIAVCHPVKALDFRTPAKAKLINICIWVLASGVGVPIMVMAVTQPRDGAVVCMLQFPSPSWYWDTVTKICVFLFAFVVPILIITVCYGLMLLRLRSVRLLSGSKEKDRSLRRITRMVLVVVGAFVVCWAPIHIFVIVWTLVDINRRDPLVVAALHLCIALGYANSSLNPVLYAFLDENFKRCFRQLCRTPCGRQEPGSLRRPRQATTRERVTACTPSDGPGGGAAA
T1 sequence (P33533 whole entry): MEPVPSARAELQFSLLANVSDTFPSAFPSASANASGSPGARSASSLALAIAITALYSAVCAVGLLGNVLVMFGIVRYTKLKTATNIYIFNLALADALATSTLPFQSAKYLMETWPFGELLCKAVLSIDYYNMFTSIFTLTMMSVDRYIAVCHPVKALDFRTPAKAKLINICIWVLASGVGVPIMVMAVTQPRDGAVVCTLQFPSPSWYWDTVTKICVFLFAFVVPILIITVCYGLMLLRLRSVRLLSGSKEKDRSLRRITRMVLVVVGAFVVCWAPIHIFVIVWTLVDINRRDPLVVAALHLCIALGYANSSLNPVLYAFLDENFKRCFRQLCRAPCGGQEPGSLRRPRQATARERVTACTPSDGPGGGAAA
T2 sequence (P33535 whole entry): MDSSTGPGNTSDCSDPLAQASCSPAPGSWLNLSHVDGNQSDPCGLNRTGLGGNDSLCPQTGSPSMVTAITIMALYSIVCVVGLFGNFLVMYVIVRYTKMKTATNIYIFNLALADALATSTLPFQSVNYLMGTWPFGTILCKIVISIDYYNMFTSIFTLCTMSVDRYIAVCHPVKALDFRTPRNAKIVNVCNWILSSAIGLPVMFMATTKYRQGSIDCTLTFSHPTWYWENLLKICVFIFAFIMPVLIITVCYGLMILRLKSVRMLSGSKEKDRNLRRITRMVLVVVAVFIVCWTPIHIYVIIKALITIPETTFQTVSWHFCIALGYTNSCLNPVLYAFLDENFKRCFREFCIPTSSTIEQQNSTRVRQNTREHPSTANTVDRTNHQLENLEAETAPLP

Row | Compound | Ki (delta opioid receptor [1]; [3]) [nM] | Ki (mu opioid receptor; read-out: μ-binding Ki) [nM] | other results
1 | COc1ccc(-c2ncc(NC[C@@H]3CCCN3)c(Oc3ccc(F)cc3)n2)cn1 [Cpd 37] | 10 | > 10000 | 
2 | COc1ccc(Oc2nc(-c3cccc(O)c3)ncc2NC[C@@H]2CCCN2)cc1 [Cpd 15] | 0.1 | 416 | 
3 | COc1ccc(Oc2nc(-c3cccc(OC)c3)ncc2NC[C@@H]2CCCN2)cc1 [Cpd 3] |  | 2340 | Ki (delta opioid receptor [1]; [4]): 142 nM
4 | COc1ccc(-c2ncc(NC[C@@H]3CCCN3)c(Oc3ccccc3OC)n2)cn1 [Cpd 39] | 67 | 8990 | 
5 | COc1ccc(Oc2nc(-c3noc(=O)[nH]3)ncc2NC[C@@H]2CCCN2)cc1 [Cpd 35, 3-{4-(4-Methoxy-phenoxy)-5-[(pyrrolidin-2-(S)-ylmethyl)-amino]-pyrimidin-2-yl}-4H-[1,2,4]oxadiazol-5-one] |  | 184 | Ki (delta opioid receptor [1]; [5]): 184 nM
6 | COc1ccc(Oc2nc(-c3cccc(S(C)(=O)=O)c3)ncc2NC[C@@H]2CCCN2)cc1 [Cpd 32] | 12.6 |  | Ki (mu opioid receptor; μ-binding Ki): 64.1 nM
7 | COc1ccc(Oc2nc(-c3ccc(NC(C)=O)cc3)ncc2NC[C@@H]2CCCN2)cc1 [Cpd 43] | 4 | 523 | 
8 | COc1ccc(Oc2nc(-c3c(C)noc3C)ncc2NC[C@@H]2CCCN2)cc1 [Cpd 62] |  | 1920 | Ki (delta opioid receptor [1]; [5]): 544 nM
9 | COc1ccc(Oc2nc(-c3cccc(N)c3)ncc2NC[C@@H]2CCCN2)cc1 [Cpd 45] |  | 812 | Ki (delta opioid receptor [1]; [5]): 11 nM
10 | COc1ccc(Oc2nc(-c3ccn[nH]3)ncc2NC[C@@H]2CCCN2)cc1 [Cpd 61] |  | 3990 | Ki (delta opioid receptor [1]; [5]): 259 nM
11 | COc1ccc(Oc2nc(-c3ccc4nonc4c3)ncc2NC[C@@H]2CCCN2)cc1 [Cpd 78] | 75 | 1880 | 
12 | COc1ccc(Oc2nc(-c3cccc(C(F)(F)F)c3)ncc2NC[C@@H]2CCCN2)cc1 [Cpd 50] | 55 | 597 | 
13 | COc1ccc(Oc2nc(-c3ccoc3)ncc2NC[C@@H]2CCCN2)cc1 [Cpd 10] | 34 | 2000 | 
14 | Fc1ccc(Oc2nc(-c3cccnc3)ncc2NC[C@@H]2CCCN2)cc1 [Cpd 36] | 3 | 4770 | 
15 | NC(=O)c1ccc(Oc2nc(-c3cccnc3)ncc2NC[C@@H]2CCCN2)cc1 [Cpd 12] | 18 | 4520 | 
16 | COc1ccc(Oc2nc(-c3cnc(N(C)C)nc3)ncc2NC[C@@H]2CCCN2)cc1 [Cpd 82] | 28 | 1050 | 
17 | COc1ccc(Oc2nc(-c3cccc4ncccc34)ncc2NC[C@@H]2CCCN2)cc1 [Cpd 16] | 14 | 1320 | 
18 | COc1ccc(Oc2nc(-c3cc(F)cc(OC)c3)ncc2NC[C@@H]2CCCN2)cc1 [Cpd 70] | 47 | 2250 | 
19 | COc1ccc(Oc2nc(-c3cccc(C(N)=O)c3)ncc2NC[C@@H]2CCCN2)cc1 [Cpd 30] | 3 | 1090 | 
20 | COc1ccc(Oc2nc(-c3ccc4ccccc4c3)ncc2NC[C@@H]2CCCN2)cc1 [Cpd 6] |  | 9010 | Ki (delta opioid receptor [1]; [5]): 116 nM
21 | COc1ccc(Oc2nc(-c3ccc(OC)cc3)ncc2NC[C@@H]2CCCN2)cc1 [Cpd 1] |  | 3230 | Ki (delta opioid receptor [1]; [4]): 363 nM
22 | COc1ccc(Oc2nc(-c3cnc(O)nc3O)ncc2NC[C@@H]2CCCN2)cc1 [Cpd 27] |  | 15500 | Ki (delta opioid receptor [1]; [5]): 2570 nM
23 | c1ccc(Oc2nc(-c3cccnc3)ncc2NC[C@@H]2CCCN2)cc1 [Cpd 14] | 1 | 1730 | 
24 | COc1ccccc1Oc1nc(-c2cccnc2)ncc1NC[C@@H]1CCCN1 [Cpd 40] | 93 | 7640 | 
25 | COc1ccc(Oc2nc(-c3cccc4cccnc34)ncc2NC[C@@H]2CCCN2)cc1 [Cpd 17] | 30 | 3080 | 
26 | COc1ccc(Oc2nc(-c3ccc4sc5ccccc5c4c3)ncc2NC[C@@H]2CCCN2)cc1 [Cpd 21] |  | 2390 | Ki (delta opioid receptor [1]; [5]): 201 nM
27 | COc1ccc(Oc2nc(-c3cnc(OC)nc3)ncc2NC[C@@H]2CCCN2)cc1 [Cpd 53] | 0.2 | 591 | 
28 | COc1ccc(-c2ncc(NC[C@@H]3CCCN3)c(Oc3ccc(N)cc3)n2)cn1 [Cpd 44] |  | 2690 | Ki (delta opioid receptor [1]; [5]): 4 nM

Row | Compound | Ki (delta opioid receptor [1]; [3]) [nM] | Ki (mu opioid receptor; read-out: μ-binding Ki) [nM] | other results
29 | COc1ccc(Oc2nc(-c3ccc4nccnc4c3)ncc2NC[C@@H]2CCCN2)cc1 [Cpd 76] |  | 333 | Ki (delta opioid receptor [1]; [5]): 111 nM
30 | FC(F)(F)Oc1ccc(Oc2nc(-c3cccnc3)ncc2NC[C@@H]2CCCN2)cc1 [Cpd 11] | 5 | 3080 | 
31 | COc1ccc(Oc2nc(-c3cnc4[nH]ccc4c3)ncc2NC[C@@H]2CCCN2)cc1 [Cpd 77] |  | 313 | Ki (delta opioid receptor [1]; [5]): 154 nM
32 | COc1cccc(Oc2nc(-c3cncc(C#N)c3)ncc2NC[C@@H]2CCCN2)c1 [Cpd 98] | 3 | 102 | 
33 | COc1ccc(Oc2nc(-c3cncc(C#N)c3)ncc2NC2CCC(N)CC2)cc1 (centres unmarked) [Cpd 298] | 4 |  | EC50 (delta opioid receptor [2]; GTPγS δ-opioid receptor EC50 (μM)): 0.087 µM; GTPγS δ-opioid receptor Rel Efficacy (delta opioid receptor [2]): 1.012
34 | COc1ccc(Oc2nc(-c3ccc(C#N)nc3)ncc2NC[C@@H]2CCCN2)cc1 [Cpd 95] | 11 |  | EC50 (delta opioid receptor [2]; [6]): 0.708 µM
35 | COc1ccc(Oc2nc(-c3cccc(NC(C)=O)c3)ncc2NC[C@@H]2CCCN2)cc1 [Cpd 42] | 16 | 1230 | 
36 | COc1ccc(Oc2nc(-c3nccs3)ncc2NC[C@@H]2CCCN2)cc1 [Cpd 48] | 24 | 862 | 
37 | COc1ccc(Oc2nc(-c3cnc(N4CCN(C)CC4)nc3)ncc2NC[C@@H]2CCCN2)cc1 [Cpd 84] |  | 338 | Ki (delta opioid receptor [1]; [5]): 16 nM
38 | COc1ccc(Oc2nc(-c3ccc(O)cc3)ncc2NC[C@@H]2CCCN2)cc1 [Cpd 33] | 29 |  | Ki (mu opioid receptor; μ-binding Ki): 29 nM
39 | COc1ccc(Oc2nc(-c3cccc4nc(C)ccc34)ncc2NC[C@@H]2CCCN2)cc1 [Cpd 18] |  | 2240 | Ki (delta opioid receptor [1]; [5]): 172 nM
40 | COc1ccc(Oc2nc(-c3cncnc3)ncc2NC[C@@H]2CC(F)(F)CN2)cc1 [Cpd 79] | 95 | > 10000 | 
41 | COc1cccc(Oc2nc(-c3cccnc3)ncc2NC[C@@H]2CCCN2)c1 [Cpd 100] | 33 |  | EC50 (delta opioid receptor [2]; [6]): 1.62 µM
42 | COc1ccc(Oc2nc(-c3ccc(-c4ccccc4)cc3)ncc2NC[C@@H]2CCCN2)cc1 [Cpd 19] |  | 8080 | Ki (delta opioid receptor [1]; [5]): 201 nM
43 | CCN(CC)C(=O)c1cccc(-c2ncc(NC[C@@H]3CCCN3)c(Oc3ccc(OC)cc3)n2)c1 [Cpd 31] | 31 | 837 | 
44 | Nc1ccc(Oc2nc(-c3cccnc3)ncc2NC[C@@H]2CCCN2)cc1 [Cpd 46] | 27 | 3550 | 
45 | COc1ccc(Oc2nc(-c3cccc(OC(F)(F)F)c3)ncc2NC[C@@H]2CCCN2)cc1 [Cpd 51] | 22 | 1030 | 
46 | Cc1nc2ccc(Oc3nc(-c4cncnc4)ncc3NC[C@@H]3CCCN3)cc2s1 [Cpd 91] | 22 |  | EC50 (delta opioid receptor [2]; [6]): > 10 µM
47 | COc1ccc(Oc2nc(-c3cccc([N+](=O)[O-])c3)ncc2NC[C@@H]2CCCN2)cc1 [Cpd 29] | 86 | 2660 | 
48 | COc1ccc(Oc2nc(-c3cnc(N)nc3)ncc2NC[C@@H]2CCCN2)cc1 [Cpd 81] |  | 569 | Ki (delta opioid receptor [1]; [5]): 355 nM
49 | Fc1cncc(-c2ncc(NC[C@@H]3CCCN3)c(Oc3ccc(OC(F)F)cc3)n2)c1 [Cpd 112] |  |  | Ki (delta opioid receptor [1]; [5]): 6 nM; EC50 (delta opioid receptor [2]; [6]): 0.33 µM; GTPγS δ-opioid receptor Rel Efficacy (delta opioid receptor [2]): 1.082
50 | COc1ccc(Oc2nc(-c3cncc(C#N)c3)ncc2NC[C@H](C)N)cc1 [Cpd 292] | 2 |  | EC50 (delta opioid receptor [2]; [6]): 0.363 µM
51 | COc1ccc(Oc2nc(-c3ccccc3OC)ncc2NC[C@@H]2CCCN2)cc1 [Cpd 4] |  | > 10000 | Ki (delta opioid receptor [1]; [4]): 2220 nM
52 | FC(F)Oc1ccc(Oc2nc(-c3cncnc3)ncc2NC[C@@H]2CCCN2)cc1 [Cpd 111] | 9 |  | EC50 (delta opioid receptor [2]; [6]): 0.491 µM
53 | COc1ccc(Oc2nc(-c3cccc(C#N)c3)ncc2NC[C@@H]2CCCN2)cc1 [Cpd 28] | 6.1 | 295 | 
54 | COc1ccc(Oc2nc(-c3cc(C)cc(C)c3)ncc2NC[C@@H]2CCCN2)cc1 [Cpd 92] | 35 |  | EC50 (delta opioid receptor [2]; [6]): 0.47 µM
55 | COc1ccc(Oc2nc(-c3cncc(C#N)c3)ncc2NCC2COCCN2)cc1 (racemic) [Cpd 279] |  |  | Ki (delta opioid receptor [1]; [5]): 5 nM; EC50 (delta opioid receptor [2]; [6]): 0.17 µM; GTPγS δ-opioid receptor Rel Efficacy (delta opioid receptor [2]): 1.004
